Measured values taken from PubChem BioAssay (NCI).
Values joined by “and” are separate entries in the source; they are usually repeats but may differ in a detail not shown here. Equal entries are not always repeated.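 Step 1: Grow cells in 96-well plates. Step 2: Expose to compound for 48 hours at 5 concentrations. Step 3: Interpolate endpoints linearly; if unreached, use highest concentration. Abbreviation: GI50, concentration required for 50% inhibition of growth. TGI marks complete inhibition of growth.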

Experiments:
Experiment in all cases: NCI-60 cell line screen, 48 h
DMS 273 small cell lung = test system: DMS 273 small cell lung
SK-MEL-28 melanoma = test system: SK-MEL-28 melanoma
MDA-MB-435 = test system: MDA-MB-435
LXFL 529 NSCLC = test system: LXFL 529 NSCLC
M19-MEL melanoma = test system: M19-MEL melanoma
SK-MEL-5 melanoma = test system: SK-MEL-5 melanoma
MCF7 breast = test system: MCF7 breast
T-47D breast = test system: T-47D breast
SF-539 CNS = test system: SF-539 CNS
HOP-18 NSCLC = test system: HOP-18 NSCLC

SMILES | TGI (DMS 273 small cell lung) | TGI (SK-MEL-28 melanoma) | TGI (MDA-MB-435) | TGI (LXFL 529 NSCLC) | TGI (M19-MEL melanoma) | TGI (SK-MEL-5 melanoma) | TGI (MCF7 breast) | TGI (T-47D breast) | TGI (SF-539 CNS) | GI50 (DMS 273 small cell lung) | GI50 (SK-MEL-28 melanoma) | GI50 (M19-MEL melanoma) | GI50 (HOP-18 NSCLC) | TGI (HOP-18 NSCLC) | GI50 (SK-MEL-5 melanoma) | GI50 (SF-539 CNS) | GI50 (LXFL 529 NSCLC) | GI50 (MDA-MB-435) | GI50 (MCF7 breast) | GI50 (T-47D breast)
Cc1cc(CS(=O)(=O)/C=C/c2ccccc2[N+](=O)[O-])c(CS(=O)(=O)/C=C/c2ccccc2[N+](=O)[O-])cc1C | > 100 µM | > 100 µM | > 100 µM | > 100 µM | > 100 µM | > 100 µM | > 100 µM | > 100 µM | 35.9 µM |  |  |  |  |  |  |  |  |  |  | 
CC(C)OP(=O)(OC(C)C)C(N(C)C)P(=O)(OC(C)C)OC(C)C.[Cl][Sn]([Cl])([Cl])[c]1ccccc1 | 10.6 µM | 75.4 µM |  |  | 6.79 µM | 3.16 µM |  |  | 15.1 µM | 2.67 µM | 5.01 µM | 2.61 µM | > 100 µM | > 100 µM | 1.65 µM | 3.46 µM |  |  |  | 
CC1=CC2=C(C)C3(CC3)[C@@](C)(O)C(=O)C2=C1 | 0.696 µM | 0.394 µM |  | 0.783 µM | 0.732 µM | 0.294 µM |  |  | 0.47 µM |  |  |  |  | 0.528 µM |  |  |  |  |  | 
CC(=O)NC1C(OCc2ccccc2)OC(COC(=O)CCCCCCCCCCNC(=O)c2cccc3c(=O)c4ccccc4[nH]c23)C(O)C1OC(C)C(=O)NC(C)C(=O)NC(CCC(N)=O)C(N)=O (stereo not given) | > 100 µM | > 100 µM |  | > 100 µM | > 100 µM | > 100 µM |  |  | > 100 µM |  |  |  |  | > 100 µM |  |  |  |  |  | 
c1ccc(SCCCC(Sc2ccccc2)Sc2ccccc2)cc1 | > 100 µM | > 100 µM |  | > 100 µM | > 100 µM | > 100 µM |  |  | > 100 µM |  |  |  |  |  |  |  |  |  |  | 
CC(C)c1ccc(/C=C(\NC(=O)c2ccccc2)c2nc3ccccc3[nH]2)cc1 | > 100 µM |  |  | > 100 µM | > 100 µM | 48.7 µM |  |  | > 100 µM |  |  |  |  | > 100 µM |  |  |  |  |  | 
c1ccc2c(c1)CCCc1cc3ccccc3nc1-2 |  | > 100 µM |  | > 100 µM | > 100 µM | > 100 µM |  |  | > 100 µM |  |  |  |  | > 100 µM |  |  |  |  |  | 
COC(=O)/C(=N\NC(=O)c1ccccc1O)C(C#N)c1ccc(Cl)cc1 (stereo not given) |  | > 100 µM |  | > 100 µM | > 100 µM | > 100 µM |  |  | > 100 µM |  |  |  |  | > 100 µM |  |  |  |  |  | 
COc1ccc([Se]c2ccc(OC)cc2OC)c(OC)c1 | 17.6 µM | 77.1 µM |  | > 100 µM | 87.1 µM | 93.4 µM |  |  | > 100 µM |  |  |  |  | 86 µM |  |  |  |  |  | 
C/C(=N\NS(=O)(=O)c1ccc(C)cc1)c1ccc[n+]([O-])n1 | > 100 µM | > 100 µM |  | > 100 µM | > 100 µM | > 100 µM |  |  | > 100 µM |  |  |  |  | > 100 µM |  |  |  |  |  | 
O=C1c2c(O)cccc2C(C(=O)CCCCC(=O)C2c3cccc(O)c3C(=O)c3c(O)cccc32)c2cccc(O)c21 | 4.51 µM | 2.5 µM and 3.27 µM | 3.01 µM | 1.01 µM and 1.95 µM |  | 0.921 µM and 2.04 µM | 6.18 µM | 0.919 µM | 0.873 µM and 2.02 µM |  | 1.54 µM |  | 0.996 µM | 1.79 µM and 1.88 µM | 1.09 µM | 1.01 µM | 1.04 µM |  |  | 
CCOC(=O)/C=C1\Nc2ccccc2C(c2ccccc2)=NC1OC(C)=O (stereo not given) | > 100 µM | > 100 µM |  | > 100 µM | > 100 µM | > 100 µM |  |  | > 100 µM |  |  |  |  |  |  |  |  |  |  | 
CCC1OCCN1C(C)C (stereo not given) | > 100 µM | 92.2 µM |  | > 100 µM | > 100 µM | > 100 µM |  |  | > 100 µM |  |  |  |  |  |  |  |  |  |  | 
Nc1ncnc2occ(-c3ccc(NC(=O)Nc4cc(C(F)(F)F)cc(C(F)(F)F)c4)cc3)c12 |  | 7.77 µM | 7.15 µM |  |  | 6.82 µM | 6.96 µM | 7.54 µM | 5.44 µM |  | 4.24 µM |  |  |  | 3.52 µM | 1.06 µM |  | 3.45 µM | 3.19 µM | 3.27 µM
O=C(OCc1ccccc1CN1CCOCC1)c1ccc(Br)cc1 |  | > 100 µM | 95.2 µM |  |  | 41.9 µM | > 100 µM | > 100 µM | > 100 µM |  |  |  |  |  |  |  |  |  |  | 
Clc1ccc2c(Cl)ncnc2c1 | > 100 µM | > 100 µM |  |  | > 100 µM | > 100 µM |  |  | > 100 µM |  |  |  |  |  |  |  |  |  |  | 
CC1OC(=O)N(CCCC=C2SCCCS2)C1=O (stereo not given) | > 100 µM | > 100 µM |  | > 100 µM | > 100 µM |  |  |  | > 100 µM |  |  |  |  | > 100 µM |  |  |  |  |  | 
O=C(N[C@@H]1CCCc2ccccc21)[C@H](CCC(=O)N1CCN(C2CCCCC2)CC1)N1C(=O)[C@@H](N2C(=O)OC[C@@H]2c2ccccc2)[C@H]1/C=C/c1ccccc1 |  | 3.67 µM | 2.72 µM |  |  | 2.71 µM | 13.4 µM | 14.6 µM | 3.42 µM |  | 1.77 µM |  |  |  | 1.37 µM | 1.74 µM |  | 1.35 µM | 2.18 µM | 2.98 µM
